Patent US10472354B2, “1,3-thiazol-2-yl substituted benzamides” (Bayer Aktiengesellschaft, priority 2014, dated 2019)

Key:
[1] = In vitro metabolic stability in liver microsomes (calculation of CL and Fmax); format: in vitro ADME, human; conditions: 1 μM, in vitro metabolic stability given as calculated maximal oral bioavailability
Description: Determination of in vitro metabolic stability in microsomes (including calculation of hepatic in vivo blood clearance (CL) and of maximal oral bioavailability (Fmax))
The metabolic assay was started shortly afterwards by adding the test compound to the incubation at a final volume of 1 mL. Organic solvent in the incubations was limited to ≤0.01% dimethylsulfoxide (DMSO) and ≤1% acetonitrile. […] Samples were frozen at −20° C. overnight, subsequently centrifuged for 15 minutes at 3000 rpm and the supernatant was analyzed with an Agilent 1200 HPLC-system with LCMS/MS detection.
The half-life of a test compound was determined from the concentration-time plot. From the half-life (kel: slope of concentration-time plot; half-life=ln 2/kel) the intrinsic clearances were calculated. Together with the additional parameters liver blood flow, specific liver weight and microsomal protein content the hepatic in vivo blood clearance (CL) and the maximal oral bioavailability (Fmax) were calculated for the different species.
(§1) Metabolic instability is often the main clearance mechanism of xenobiotica leading to a high CL and low bioavailability which may eventually result in a short half-life and a low exposure after oral administration. Thus, reducing the susceptibility of metabolic degradation usually leads to a more favourable pharmacokinetic profile. When using liver microsomes as incubation matrix main phase I metabolic reactions, typically oxidoreductive reactions by cytochrome P450 enzymes and flavin mono-oxygenases (FMO) and hydrolytic reactions by esterases/amidases/epoxidhydrolases, are described. When the incubation of the test compound is performed in a hepatocyte matrix all potential hepatic metabolic processes (phase I and phase II) are covered.

[2] = In vitro metabolic stability in rat hepatocytes; format: in vitro ADME; conditions: 1 μM, in vitro metabolic stability given as calculated maximal oral bioavailability
Description: Determination of in vitro metabolic stability in rat hepatocytes (including calculation of hepatic in vivo blood clearance (CL))
Hepatocytes from Han Wistar rats were isolated via a 2-step perfusion method. After perfusion, the liver was carefully removed from the rat: the liver capsule was opened and the hepatocytes were gently shaken out into a Petri dish with ice-cold Williams' medium E (WME). The resulting cell suspension was filtered through sterile gaze in 50 mL falcon tubes and centrifuged at 50×g for 3 min at room temperature. The cell pellet was resuspended in 30 mL WME and centrifuged through a Percoll® gradient for 2 times at 100×g. The hepatocytes were washed again with WME and resuspended in medium containing 5% FCS. Cell viability was determined by trypan blue exclusion.
The test compound was added to a final concentration of 1 μM. […] Samples were frozen at −20° C. overnight, subsequently centrifuged for 15 minutes at 3000 rpm and the supernatant was analyzed with an Agilent 1200 HPLC-system with LCMS/MS detection.
The half-life of a test compound was determined from the concentration-time plot. From the half-life (kel: slope of concentration-time plot; half-life=ln 2/kel) the intrinsic clearances were calculated. Together with the additional parameters liver blood flow, amount of liver cells in vivo and in vitro.
as §1

vaginal hyperalgesia = experiment: Rat dyspareunia model (visceromotor response to vaginal distension); format: in vivo; conditions: 15 mg/kg oral b.i.d. during 2 weeks, 5 and 6 weeks post-implantation
Description: The visceromotor response (VMR) to vaginal distension was used in conscious animals as an objective measure of vaginal sensitivity. Briefly, animals in estrus phase were surgically implanted with biopsies of left uterine horn (3×3 mm) around alternate cascade mesenteric arteries that supply the small intestine (4 pieces) and on the wall of the distal colon (2 pieces). To measure VMR response, 2 Teflon-coated wire electrodes were sutured in the external oblique abdominal muscle, and tunneled subcutaneously to be exteriorized at the base of the neck for future access. On the day of VMR assessment, a lubricated small balloon (1 cm length) was inserted into the mid-vaginal canal. […] The electrodes were connected to an amplifier (Animal Bio Amp, ADInstruments), and the abdominal electromyographic signal was recorded using a data acquisition system (PowerLab, ADInstruments) for off-line analysis using LabChart version 7. The number of abdominal muscle contractions was counted manually for each 0.1 ml distension step, as an index of vaginal pain. […] Statistical Analysis All data were expressed as mean±standard deviation (s.d.), for the number (n) of measured rats per group. […] Planned comparison of means (matched-volume versus vehicle) was performed using a Bonferroni post hoc test, provided that a main effect was detected. […]

[3] = Human liver cytosol stability assay; format: in vitro ADME; conditions: 4 h incubation, 37° C.
Description: Human Liver Cytosol Stability Assay
Method description: Human liver cytosol (pooled, >30 male and female donors) was incubated with individual test compounds in order to compare the extent of depletion of test compound and formation of the respective oxidised metabolite. […] An incubation volume of 1000 μL was used. The test compound was added from a stock solution in acetonitrile at 1 or 10 μM concentration in the incubation. Incubations were performed at 37° C. Reactions were stopped at 0 h and 4 h after incubation by addition of 100 μL acetonitrile to 250 μL of incubation mixture. Precipitated proteins were removed by centrifugation at approximately 3000 rpm. The supernatants were stored at approximately −20° C. until they were analysed. […]
Data analysis: The depletion of the test compound and formation of the corresponding metabolites were determined by decrease or increase of the corresponding peak area in the chromatogram after UV detection at approximately 300 nm 4 h after incubation compared to that at 0 h after incubation. […]

[4] = clinical PhII trials; side effect attributed to blockade of P2X2/3 channels; cited from earlier work
CYP2D6 = CYP2D6 (Homo sapiens (Human), UniProt P10635); experiment: CYP inhibition assay, CYP2D6; format: in vitro ADME; conditions: human liver microsomes, probe dextromethorphan
Description: (§2) Method Description CYP Inhibition Assay
(§3) Data analysis: The CYP-mediated activities in the presence of inhibitors were expressed as percentages of the corresponding control values. A sigmoid-shaped curve was fitted to the data, and the enzyme inhibition parameter IC50 was calculated using a nonlinear least-squares regression analysis of the plot of percent control activity versus concentration of the test inhibitor.

CYP2C8 = CYP2C8 (Homo sapiens (Human), UniProt P10632); experiment: CYP inhibition assay, CYP2C8; format: in vitro ADME; conditions: human liver microsomes, probe amodiquine
Description: as §2, §3

CYP2C9 = CYP2C9 (Homo sapiens (Human), UniProt P11712); experiment: CYP inhibition assay, CYP2C9; format: in vitro ADME; conditions: human liver microsomes, probe diclofenac
Description: as §2, §3

CYP3A4 = CYP3A4 (Homo sapiens (Human), UniProt P08684); experiment: CYP inhibition assay, CYP3A4; format: in vitro ADME; conditions: human liver microsomes, probe midazolam
Description: as §2, §3

CYP1A2 = CYP1A2 (Homo sapiens (Human), UniProt P05177); experiment: CYP inhibition assay, CYP1A2
Description: as §2, §3

Chain of CYP2C8 (P10632 whole entry): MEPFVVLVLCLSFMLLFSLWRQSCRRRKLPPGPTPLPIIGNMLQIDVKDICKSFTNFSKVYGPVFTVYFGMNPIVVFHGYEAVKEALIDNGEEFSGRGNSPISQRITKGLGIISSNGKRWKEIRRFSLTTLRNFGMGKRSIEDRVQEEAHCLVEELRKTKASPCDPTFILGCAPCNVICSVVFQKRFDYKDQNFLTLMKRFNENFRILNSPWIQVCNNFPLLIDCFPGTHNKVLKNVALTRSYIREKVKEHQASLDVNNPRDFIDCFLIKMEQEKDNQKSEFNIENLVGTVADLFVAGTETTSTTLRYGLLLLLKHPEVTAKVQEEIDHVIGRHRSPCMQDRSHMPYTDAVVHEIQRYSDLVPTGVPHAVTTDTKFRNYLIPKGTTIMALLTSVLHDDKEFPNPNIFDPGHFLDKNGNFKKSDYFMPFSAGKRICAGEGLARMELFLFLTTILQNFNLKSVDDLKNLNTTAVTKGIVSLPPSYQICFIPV
Chain of CYP1A2 (P05177 whole entry): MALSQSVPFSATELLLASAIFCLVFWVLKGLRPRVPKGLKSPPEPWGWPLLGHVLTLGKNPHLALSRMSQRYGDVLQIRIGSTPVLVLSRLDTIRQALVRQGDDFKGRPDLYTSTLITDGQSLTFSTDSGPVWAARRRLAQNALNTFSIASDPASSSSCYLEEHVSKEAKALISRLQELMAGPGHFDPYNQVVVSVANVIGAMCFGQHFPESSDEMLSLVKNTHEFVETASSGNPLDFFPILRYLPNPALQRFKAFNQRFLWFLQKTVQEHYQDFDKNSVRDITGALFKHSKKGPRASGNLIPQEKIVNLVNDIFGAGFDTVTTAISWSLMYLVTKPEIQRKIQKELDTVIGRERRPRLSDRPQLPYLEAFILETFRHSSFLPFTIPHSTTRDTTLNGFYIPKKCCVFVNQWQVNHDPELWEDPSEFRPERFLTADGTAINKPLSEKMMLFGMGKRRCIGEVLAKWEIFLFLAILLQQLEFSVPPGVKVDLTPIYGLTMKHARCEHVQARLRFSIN
Chain of CYP3A4 (P08684 whole entry): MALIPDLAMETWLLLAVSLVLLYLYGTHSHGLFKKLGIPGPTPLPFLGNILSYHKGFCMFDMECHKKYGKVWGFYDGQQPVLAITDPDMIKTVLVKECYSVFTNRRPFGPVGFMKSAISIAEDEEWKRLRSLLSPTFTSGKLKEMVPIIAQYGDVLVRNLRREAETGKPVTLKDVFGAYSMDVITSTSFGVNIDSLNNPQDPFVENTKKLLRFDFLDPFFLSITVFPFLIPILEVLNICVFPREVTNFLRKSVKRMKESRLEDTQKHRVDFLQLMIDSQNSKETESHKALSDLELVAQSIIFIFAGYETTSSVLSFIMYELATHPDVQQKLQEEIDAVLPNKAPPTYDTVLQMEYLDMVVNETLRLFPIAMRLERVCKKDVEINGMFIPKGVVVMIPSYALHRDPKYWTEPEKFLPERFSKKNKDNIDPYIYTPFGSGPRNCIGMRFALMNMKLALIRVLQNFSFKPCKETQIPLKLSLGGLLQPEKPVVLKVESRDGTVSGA
Chain of CYP2C9 (P11712 whole entry): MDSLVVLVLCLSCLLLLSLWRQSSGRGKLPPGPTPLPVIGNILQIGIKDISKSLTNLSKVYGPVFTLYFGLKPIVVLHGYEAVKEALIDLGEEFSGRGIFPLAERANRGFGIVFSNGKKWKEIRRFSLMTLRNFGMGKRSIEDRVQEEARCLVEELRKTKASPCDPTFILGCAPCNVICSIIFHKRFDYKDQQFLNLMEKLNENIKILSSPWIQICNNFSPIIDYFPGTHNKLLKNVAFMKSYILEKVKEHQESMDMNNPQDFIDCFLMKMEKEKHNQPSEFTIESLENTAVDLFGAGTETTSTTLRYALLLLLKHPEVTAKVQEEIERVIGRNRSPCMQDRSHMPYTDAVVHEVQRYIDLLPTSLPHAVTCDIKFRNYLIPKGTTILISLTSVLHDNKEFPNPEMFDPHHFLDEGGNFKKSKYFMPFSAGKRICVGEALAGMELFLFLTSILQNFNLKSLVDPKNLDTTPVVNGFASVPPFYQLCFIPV
Chain of CYP2D6 (P10635 whole entry): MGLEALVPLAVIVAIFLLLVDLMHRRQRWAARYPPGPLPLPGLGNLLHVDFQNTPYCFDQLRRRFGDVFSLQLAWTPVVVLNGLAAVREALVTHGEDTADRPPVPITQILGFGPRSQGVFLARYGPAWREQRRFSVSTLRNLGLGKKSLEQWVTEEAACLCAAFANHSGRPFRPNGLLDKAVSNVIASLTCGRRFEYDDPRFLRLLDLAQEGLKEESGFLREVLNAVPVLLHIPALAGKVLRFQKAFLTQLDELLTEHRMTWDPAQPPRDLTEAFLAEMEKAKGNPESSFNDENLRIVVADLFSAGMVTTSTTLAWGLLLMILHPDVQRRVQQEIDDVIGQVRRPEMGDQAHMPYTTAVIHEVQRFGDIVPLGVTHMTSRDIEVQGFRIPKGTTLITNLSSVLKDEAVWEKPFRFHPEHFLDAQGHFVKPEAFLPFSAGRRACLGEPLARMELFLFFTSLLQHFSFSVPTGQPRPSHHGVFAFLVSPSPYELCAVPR

SMILES	Human liver microsome Fmax [1]	Rat hepatocyte Fmax [2]	also measured
Cc1cnc(-c2cc(OC(C)C(C)O)cc(C(=O)N[C@H](C)c3ccc(C(F)(F)F)nn3)c2)s1 (single isomer, unassigned) [Example 183]	74%	43%	–
Cc1cnc(-c2cc(O[C@@H]3CCOC3)cc(C(=O)N[C@H](C)c3cnc(C(F)(F)F)nc3)c2)s1 [Example 11, 3-(5-Methyl-1,3-thiazol-2-yl)-5-[(3R)-tetrahydrofuran-3-yloxy]-N-{(1R)-1-[2-(trifluoromethyl)pyrimidin-5-yl]ethyl}benzamide]	57%	52%	Vaginal hyperalgesia compared to vehicle-treated animals (vaginal hyperalgesia): decreased vaginal hyperalgesia; Test compound turnover after 4 h [3]: 0.9%
COc1cc(C(C)C)c(Oc2cnc(N)nc2N)cc1S(N)(=O)=O [AF-219]	–	–	taste disturbances in treated subjects [4]: leads to taste disturbances
Cc1cnc(-c2cc(O[C@H]3CCOC3)cc(C(=O)N[C@H](C)c3cnc(C(F)(F)F)nc3)c2)s1 [Example 26, 3-(5-Methyl-1,3-thiazol-2-yl)-5-[(3S)-tetrahydrofuran-3-yloxy]-N-{(1R)-1-[2-(trifluoromethyl)pyrimidin-5-yl]ethyl}benzamide]	67%	56%	Test compound turnover after 4 h [3]: 0.9%
Cc1cnc(-c2cc(OC(C)C(C)O)cc(C(=O)N[C@H](C)c3cnc(C(F)(F)F)nc3)c2)s1 (single isomer, unassigned) [Example 340]	90%	64%	–
CCc1cnc(-c2cc(OC[C@H]3CN(C)CCO3)cc(C(=O)N[C@H](C)c3ccc(C(F)(F)F)nn3)c2)s1 [Example 419, 3-(5-ethyl-1,3-thiazol-2-yl)-5-{[(2R)-4-methylmorpholin-2-yl]methoxy}-N-{(1R)-1-[6-(trifluoromethyl)pyridazin-3-yl]ethyl}benzamide]	74%	51%	–
Cc1cnc(-c2cc(OC(C)C(C)O)cc(C(=O)N[C@H](C)c3cnc(C(F)(F)F)nc3)c2)s1 (single isomer, unassigned) [Example 163]	100%	53%	–
Cc1cnc(-c2cc(OC(C)C(C)O)cc(C(=O)N[C@H](C)c3cnc(C(F)(F)F)nc3)c2)s1 (single isomer, unassigned) [Example 339]	94%	52%	IC50 (CYP2D6): > 20 µM; IC50 (CYP2C8): > 20 µM; IC50 (CYP2C9): > 20 µM; IC50 (CYP3A4): > 20 µM; IC50 (CYP1A2): > 20 µM
